Test results as given in ChEMBL document CHEMBL4765318 (Eur J Med Chem, 2020).
pIC50: −log10 of the molar value. The source made the active and inactive calls. The rule behind the calls is not given here.

Experiments:
[1] = target: T1, Tyrosine-protein kinase BTK (Homo sapiens, UniProt Q06187); experiment: Inhibition of BTK (unknown origin) by ADP-Glo assay
[2] = system: Raji; experiment: Antiproliferative activity against human Raji cells assessed as reduction in cell viability incubated for 24 hrs by CCK-8 assay; format: functional, cell-based
[3] = target: T1, Tyrosine-protein kinase BTK; settings: dose 100.0 nM
Description: Inhibition of BTK (unknown origin) at 100 nM by ADP-Glo assay relative to control

[4] = system: Ramos; experiment: Antiproliferative activity against human Ramos cells assessed as reduction in cell viability incubated for 24 hrs by CCK-8 assay; format: functional, cell-based
[5] = system: Ramos; experiment: Induction of apoptosis in human Ramos cells assessed as viable cells at 5 uM incubated for 24 hrs by annexin V-FITC and PI staining based flow cytometry analysis (reference value: 93.8 %); format: functional
[6] = system: Ramos; experiment: Induction of cell cycle arrest in human Ramos cells assessed as G2/M phase accumulation at 5 uM incubated for 24 hrs by PI staining based flow cytometry analysis (reference value: 20.96 %); format: functional
[7] = system: Ramos; experiment: Induction of cell cycle arrest in human Ramos cells assessed as G0/G1 phase accumulation at 5 uM incubated for 24 hrs by PI staining based flow cytometry analysis (reference value: 39.13 %); format: functional
[8] = system: Ramos; experiment: Induction of apoptosis in human Ramos cells assessed as necrotic cells at 5 uM incubated for 24 hrs by annexin V-FITC and PI staining based flow cytometry analysis (reference value: 2.1 %); format: functional
[9] = system: Ramos; experiment: Induction of cell cycle arrest in human Ramos cells assessed as subG1 phase accumulation at 5 uM incubated for 24 hrs by PI staining based flow cytometry analysis (reference value: 2.53 %); format: functional
[10] = system: Ramos; experiment: Induction of apoptosis in human Ramos cells assessed as late apoptotic cells at 5 uM incubated for 24 hrs by annexin V-FITC and PI staining based flow cytometry analysis (reference value: 2.2 %); format: functional
[11] = system: Ramos; experiment: Induction of apoptosis in human Ramos cells assessed as early apoptotic cells at 5 uM incubated for 24 hrs by annexin V-FITC and PI staining based flow cytometry analysis (reference value: 1.9 %); format: functional
[12] = system: Ramos; experiment: Induction of cell cycle arrest in human Ramos cells assessed as S phase accumulation at 5 uM incubated for 24 hrs by PI staining based flow cytometry analysis (reference value: 37.38 %); format: functional
[13] = target: T1, Tyrosine-protein kinase BTK; experiment: Inhibition of BTK in human Ramos cells assessed as reduction in PLCgamma2 phosphorylation at Tyr557 residue at 3 uM incubated for 24 hrs by Western blot analysis; format: cell-based
[14] = target: Epidermal growth factor receptor (Homo sapiens, UniProt P00533); experiment: Inhibition of EGFR (unknown origin) by ADP-Glo assay
[15] = target: Proto-oncogene tyrosine-protein kinase Src (Homo sapiens, UniProt P12931); experiment: Inhibition of SRC (unknown origin) by ADP-Glo assay
[16] = target: T1, Tyrosine-protein kinase BTK; experiment: Inhibition of BTK in human Ramos cells assessed as reduction in BTK phosphorylation at Tyr223 residue at 10 uM incubated for 4 hrs followed by compound wash-out and measured upto 24 hrs by Western blot analysis; format: cell-based
[17] = target: T1, Tyrosine-protein kinase BTK; experiment: Inhibition of BTK in human TMD8 cells assessed as reduction in cell proliferation incubated for 24 hrs by CCK-8 assay; format: cell-based
[18] = target: Tyrosine-protein kinase Blk (Homo sapiens, UniProt P51451); experiment: Inhibition of BLK (unknown origin) by ADP-Glo assay
[19] = target: T1, Tyrosine-protein kinase BTK; experiment: Inhibition of BTK in human Ramos cells assessed as reduction in BTK phosphorylation at Tyr223 residue at 10 uM incubated for 4 hrs by Western blot analysis relative to control; format: cell-based
[20] = target: T2, Tyrosine-protein kinase ITK/TSK (Homo sapiens, UniProt Q08881); experiment: Inhibition of ITK (unknown origin) by ADP-Glo assay
T2 sequence (Q08881 whole entry): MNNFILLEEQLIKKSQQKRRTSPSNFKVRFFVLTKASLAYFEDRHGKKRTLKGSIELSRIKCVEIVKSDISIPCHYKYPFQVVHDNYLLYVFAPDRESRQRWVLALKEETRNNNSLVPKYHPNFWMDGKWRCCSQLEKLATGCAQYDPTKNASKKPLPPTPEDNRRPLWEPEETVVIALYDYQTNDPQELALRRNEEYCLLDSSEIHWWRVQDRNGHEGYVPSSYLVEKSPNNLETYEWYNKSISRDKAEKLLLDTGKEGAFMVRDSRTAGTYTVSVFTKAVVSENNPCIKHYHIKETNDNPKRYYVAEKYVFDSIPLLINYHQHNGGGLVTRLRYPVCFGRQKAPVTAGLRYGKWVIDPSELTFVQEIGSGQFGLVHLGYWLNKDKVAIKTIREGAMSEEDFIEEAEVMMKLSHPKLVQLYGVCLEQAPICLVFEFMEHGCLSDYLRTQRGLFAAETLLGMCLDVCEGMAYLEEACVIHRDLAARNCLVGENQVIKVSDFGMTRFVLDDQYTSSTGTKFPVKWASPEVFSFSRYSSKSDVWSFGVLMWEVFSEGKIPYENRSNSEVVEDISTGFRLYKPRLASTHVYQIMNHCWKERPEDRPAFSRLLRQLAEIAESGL

[21] = target: T1, Tyrosine-protein kinase BTK; experiment: Inhibition of BTK in human Ramos cells assessed as reduction in BTK phosphorylation at Tyr223 residue at 10 uM incubated for 24 hrs by Western blot analysis; format: cell-based

T1 sequence (Q06187 whole entry): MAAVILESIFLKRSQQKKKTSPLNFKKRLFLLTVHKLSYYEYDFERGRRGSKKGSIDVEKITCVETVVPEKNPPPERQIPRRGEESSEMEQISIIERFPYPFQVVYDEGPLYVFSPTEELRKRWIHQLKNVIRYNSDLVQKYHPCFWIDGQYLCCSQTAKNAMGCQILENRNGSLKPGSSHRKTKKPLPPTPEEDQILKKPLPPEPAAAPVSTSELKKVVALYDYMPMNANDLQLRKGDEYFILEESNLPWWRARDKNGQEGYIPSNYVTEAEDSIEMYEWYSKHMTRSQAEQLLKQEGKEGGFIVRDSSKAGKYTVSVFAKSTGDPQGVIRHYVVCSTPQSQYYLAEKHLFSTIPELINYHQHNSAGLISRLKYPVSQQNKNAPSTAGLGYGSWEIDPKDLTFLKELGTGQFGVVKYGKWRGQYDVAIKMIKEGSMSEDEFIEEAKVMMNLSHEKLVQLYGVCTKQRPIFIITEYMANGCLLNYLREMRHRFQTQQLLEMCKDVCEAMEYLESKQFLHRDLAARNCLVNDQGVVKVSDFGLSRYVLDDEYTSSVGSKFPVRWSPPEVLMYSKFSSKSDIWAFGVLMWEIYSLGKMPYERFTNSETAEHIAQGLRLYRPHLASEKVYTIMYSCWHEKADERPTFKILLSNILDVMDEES
Chain of Epidermal growth factor receptor (P00533 whole entry): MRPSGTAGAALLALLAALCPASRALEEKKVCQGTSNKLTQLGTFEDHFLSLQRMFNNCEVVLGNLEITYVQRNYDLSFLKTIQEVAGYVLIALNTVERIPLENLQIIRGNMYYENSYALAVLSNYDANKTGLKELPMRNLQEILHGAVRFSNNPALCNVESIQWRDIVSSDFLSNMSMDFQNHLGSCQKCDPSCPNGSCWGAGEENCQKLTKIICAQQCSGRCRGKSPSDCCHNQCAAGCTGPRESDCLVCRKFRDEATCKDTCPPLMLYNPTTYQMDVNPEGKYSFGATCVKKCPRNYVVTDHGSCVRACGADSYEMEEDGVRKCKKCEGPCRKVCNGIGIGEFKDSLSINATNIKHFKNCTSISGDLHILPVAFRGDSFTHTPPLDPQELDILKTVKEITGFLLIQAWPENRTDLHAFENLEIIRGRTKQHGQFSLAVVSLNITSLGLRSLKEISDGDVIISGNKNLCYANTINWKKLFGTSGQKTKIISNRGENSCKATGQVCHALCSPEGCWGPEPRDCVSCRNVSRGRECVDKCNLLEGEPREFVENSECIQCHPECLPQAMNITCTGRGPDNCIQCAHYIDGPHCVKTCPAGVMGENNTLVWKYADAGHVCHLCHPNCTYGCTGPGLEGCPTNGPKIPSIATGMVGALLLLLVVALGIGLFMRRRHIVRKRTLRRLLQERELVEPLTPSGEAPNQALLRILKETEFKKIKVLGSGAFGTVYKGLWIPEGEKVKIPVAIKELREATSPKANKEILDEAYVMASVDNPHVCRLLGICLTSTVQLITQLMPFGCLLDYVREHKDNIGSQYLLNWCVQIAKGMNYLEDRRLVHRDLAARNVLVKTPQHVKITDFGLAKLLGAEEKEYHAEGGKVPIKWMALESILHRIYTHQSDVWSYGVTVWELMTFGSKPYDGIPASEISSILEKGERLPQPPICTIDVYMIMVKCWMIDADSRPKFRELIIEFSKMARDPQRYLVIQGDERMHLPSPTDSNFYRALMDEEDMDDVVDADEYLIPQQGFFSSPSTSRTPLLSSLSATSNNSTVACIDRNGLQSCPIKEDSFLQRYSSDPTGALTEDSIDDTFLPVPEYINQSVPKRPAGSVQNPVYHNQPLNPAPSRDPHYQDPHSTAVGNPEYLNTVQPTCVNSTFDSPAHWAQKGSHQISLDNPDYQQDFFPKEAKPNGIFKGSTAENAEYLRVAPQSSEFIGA
Chain of Proto-oncogene tyrosine-protein kinase Src (P12931 2-536 limits assumed): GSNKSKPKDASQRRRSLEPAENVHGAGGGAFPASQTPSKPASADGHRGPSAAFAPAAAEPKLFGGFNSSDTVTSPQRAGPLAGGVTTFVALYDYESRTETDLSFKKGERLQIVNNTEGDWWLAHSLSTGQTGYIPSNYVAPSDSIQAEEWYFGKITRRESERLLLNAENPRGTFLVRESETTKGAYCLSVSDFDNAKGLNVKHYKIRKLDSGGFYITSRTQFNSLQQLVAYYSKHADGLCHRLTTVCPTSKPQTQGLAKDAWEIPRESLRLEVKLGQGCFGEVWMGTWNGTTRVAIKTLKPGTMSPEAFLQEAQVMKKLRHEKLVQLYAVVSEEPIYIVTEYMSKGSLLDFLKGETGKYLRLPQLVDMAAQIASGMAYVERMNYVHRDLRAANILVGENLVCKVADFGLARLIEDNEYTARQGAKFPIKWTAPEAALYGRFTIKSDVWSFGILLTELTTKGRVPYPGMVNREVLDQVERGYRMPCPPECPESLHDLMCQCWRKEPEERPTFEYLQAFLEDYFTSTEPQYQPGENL
Chain of Tyrosine-protein kinase Blk (P51451 whole entry): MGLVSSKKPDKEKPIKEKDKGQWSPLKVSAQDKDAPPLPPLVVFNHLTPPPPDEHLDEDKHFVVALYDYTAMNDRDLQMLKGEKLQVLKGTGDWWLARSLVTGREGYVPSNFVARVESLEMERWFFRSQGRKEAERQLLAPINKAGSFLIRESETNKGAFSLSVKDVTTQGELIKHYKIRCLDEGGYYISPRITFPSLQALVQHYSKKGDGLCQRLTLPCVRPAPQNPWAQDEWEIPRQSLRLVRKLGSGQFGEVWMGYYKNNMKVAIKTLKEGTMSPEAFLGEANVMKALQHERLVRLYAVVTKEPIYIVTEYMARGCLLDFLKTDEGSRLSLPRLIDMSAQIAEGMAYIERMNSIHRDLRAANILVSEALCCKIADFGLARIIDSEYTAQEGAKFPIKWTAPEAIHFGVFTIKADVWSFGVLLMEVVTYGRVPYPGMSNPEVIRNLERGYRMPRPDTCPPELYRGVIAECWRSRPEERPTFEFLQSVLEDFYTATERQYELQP

| SMILES | pIC50 [2] | inhibition [3] [%] | pIC50 [4] | also measured |
| --- | --- | --- | --- | --- |
| C=CC(=O)Nc1cc(Nc2ncnc(Nc3ccc(C(=O)N4CCCCC4)cc3)n2)ccc1C | 4.51 | 39.1 | 4.31 | pIC50 [1]: 6.84 |
| C=CC(=O)Nc1cccc(Nc2ncnc(Nc3ccc(OCCOC)cc3)n2)c1 | 3.98 | 57.1 | 3.74 | – |
| C=CC(=O)Nc1cccc(Nc2ncnc(Nc3ccc(C(=O)Nc4ccccn4)cc3)n2)c1 | 4.81 | 56.3 | – | – |
| C=CC(=O)Nc1cccc(Nc2ncnc(Nc3ccc(-c4ccc(OC)nc4)cc3)n2)c1 | – | 32.7 | – | – |
| C=CC(=O)Nc1cccc(Nc2nc(Cl)nc(Nc3ccc(OCCOC)cc3)n2)c1 | – | 10 | – | – |
| C=CC(=O)N1CCC[C@@H](n2nc(-c3ccc(Oc4ccccc4)cc3)c3c(N)ncnc32)C1 [IBRUTINIB] | 4.90 | – | 5.87 | Activity [5]: 82.1%; Activity [6]: 26.95%; Activity [7]: 28.72%; Activity [8]: 3.5%; Activity [9]: 15.11%; Activity [10]: 12.5%; Activity [11]: 1.9%; Activity [12]: 29.22% |
| C=CC(=O)Nc1cccc(Nc2ncnc(Nc3ccc(-c4ccc(Cl)nc4)cc3)n2)c1 | – | 36.7 | 3.80 | – |
| C=CC(=O)Nc1cccc(Nc2nc(Cl)nc(Nc3ccc(Oc4ccccc4)cc3)n2)c1 | 4.81 | 7.3 | 4.91 | – |
| C=CC(=O)Nc1cccc(Nc2ncnc(Nc3ccc(C(=O)N4CCOCC4)cc3)n2)c1 | 4.65 | 77.5 | 4.88 | – |
| C=CC(=O)Nc1cccc(Nc2nc(N)nc(Nc3ccc(OCCOC)cc3)n2)c1 | 4.74 | 27.7 | 4.72 | – |
| C=CC(=O)Nc1cccc(Nc2ncnc(Nc3ccc(Oc4ccc(OC)cc4)cc3)n2)c1 | – | 23.4 | < 4.00 | – |
| C=CC(=O)Nc1cccc(Nc2ncnc(Nc3ccc(C(=O)Nc4ccc(C)cn4)cc3)n2)c1 | 3.90 | 41.6 | < 4.00 | – |

Now from value to compound, other results behind:

| pIC50 [2] | inhibition [3] [%] | pIC50 [4] | SMILES | also measured |
| --- | --- | --- | --- | --- |
| 5.49 | 46.8 | 4.23 | C=CC(=O)Nc1cccc(Nc2ncnc(Nc3ccc(-c4ccc(F)nc4)cc3)n2)c1 | – |
| 5.34 | 8.9 | 4.61 | CC#CC(=O)Nc1cccc(Nc2ncnc(Nc3ccc(C(=O)N4CCCCC4)cc3)n2)c1 | pIC50 [1]: < 6.00 |
| 5.55 | 75.8 | – | C=CC(=O)N1CCc2ccc(Nc3ncnc(Nc4ccc(C(=O)N5CCCCC5)cc4)n3)cc21 | pIC50 [1]: 7.27 |
| 5.29 | 91.1 | 5.21 | C=CC(=O)Nc1cccc(Nc2ncnc(Nc3ccc(C(=O)N4CCCCC4)cc3)n2)c1 | inhibition [13]: Active; viability at 5 µM ([5]; Homo sapiens, Ramos, read-out: Activity): 84.7%; pIC50 [14]: 7.51; Activity [6]: 25.14%; pIC50 [1]: 7.68; Activity [7]: 29.23%; Activity [8]: 2.4%; pIC50 [15]: 6.28; Activity [9]: 10.43%; inhibition [16]: Active; inhibition [17]: Dose-dependent effect; pIC50 [18]: 6.23; inhibition [19]: 100%; pIC50 [20]: 5.58; Activity [10]: 10.8%; Activity [11]: 2.1%; Activity [12]: 35.2%; inhibition [21]: Active |
| 4.86 | 4.8 | 4.88 | C/C=C/C(=O)Nc1cccc(Nc2ncnc(Nc3ccc(C(=O)N4CCCCC4)cc3)n2)c1 | pIC50 [1]: < 6.00 |
| 4.86 | 55.7 | – | C=CC(=O)Nc1cccc(Nc2ncnc(Nc3ccc(-c4ccc(C)nc4)cc3)n2)c1 | – |
| 5.08 | 17.1 | 4.70 | C=CC(=O)Nc1cccc(Nc2nc(N)nc(Nc3ccc(Oc4ccccc4)cc3)n2)c1 | – |
| 4.91 | 66.6 | < 4.00 | C=CC(=O)Nc1cccc(Nc2ncnc(Nc3ccc(-c4cccnc4)cc3)n2)c1 | – |
